Columns and labels:
[1] = molecular target: T1, Thyroid hormone receptor alpha [148-410] (Homo sapiens, UniProt P10827); assay: Fluorescence Polarization (FP) Competition Assay
T1 construct: 148-410
T1 sequence (P10827 whole entry): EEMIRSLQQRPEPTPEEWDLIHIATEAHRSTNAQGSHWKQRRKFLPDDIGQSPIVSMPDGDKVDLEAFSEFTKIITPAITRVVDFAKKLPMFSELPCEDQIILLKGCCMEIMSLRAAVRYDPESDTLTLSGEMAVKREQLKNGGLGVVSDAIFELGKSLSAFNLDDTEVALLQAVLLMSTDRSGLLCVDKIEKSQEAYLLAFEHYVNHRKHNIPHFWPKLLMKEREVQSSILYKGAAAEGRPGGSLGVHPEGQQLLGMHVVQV
Description: (§1) IC50 is the concentration of each compound required to inhibit 50% of the binding between the TR LBD and the SRC2-2 peptide using fluorescence polarization (FP) assay. The competition binding experiments were evaluated using PrismPad, and the IC50 values were obtained by fitting the data to an equation, Sigmoidal dose-response (variable slope) or four parameter logistic equation.

[2] = molecular target: T2, Thyroid hormone receptor beta [209-461] (Homo sapiens, UniProt P10828); assay: Fluorescence Polarization (FP) Competition Assay
T2 construct: 209-461
T2 sequence (P10828 whole entry): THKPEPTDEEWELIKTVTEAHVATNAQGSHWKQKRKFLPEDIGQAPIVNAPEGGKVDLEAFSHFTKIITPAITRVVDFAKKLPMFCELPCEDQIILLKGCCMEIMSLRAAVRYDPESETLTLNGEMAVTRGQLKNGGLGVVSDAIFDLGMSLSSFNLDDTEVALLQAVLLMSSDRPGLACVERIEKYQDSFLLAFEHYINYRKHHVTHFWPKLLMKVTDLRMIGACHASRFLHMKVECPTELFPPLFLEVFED
Description: as §1

| SMILES | IC50 [1] | IC50 [2] | IC50 ([1]; pH 7.2, 22 °C) |
| --- | --- | --- | --- |
| C=CC(=O)Oc1ccc(CCCCCCC)cc1 [4-heptylphenyl prop-2-enoate] | 23 µM | 10.5 µM | – |
| C=CC(=O)Oc1ccc(C(=O)OCCC)cc1 [propyl 4-(prop-2-enoyloxy)benzoate] | > 100 µM | 61 µM | – |
| CCCCCCc1ccc(C(=O)CCN2CCCC2)cc1 [1-(4-hexylphenyl)-3-(pyrrolidin-1-yl)propan-1-one] | – | 2.7 µM | 4.3 µM |
| C=CC(=O)Oc1ccc(CCCCCCCC)cc1 [4-octylphenyl prop-2-enoate] | 21.4 µM | 11.4 µM | – |
| C=CC(=O)Oc1ccc(CCCCC)cc1 [4-pentylphenyl prop-2-enoate] | – | 33.9 µM | 60.9 µM |
| C=CC(=O)Oc1ccc(CCCCCC)cc1 [4-hexylphenyl prop-2-enoate] | 45.2 µM | 18.6 µM | – |
| C=CC(=O)OC1CCC(C(C)(C)CC)CC1 (centres undefined) [4-(2-methylbutan-2-yl)cyclohexyl prop-2-enoate] | 75.6 µM | 69.1 µM | – |
| C=CC(=O)Oc1ccc(NC(=O)CCC)cc1 [4-butanamidophenyl prop-2-enoate] | > 100 µM | 85.9 µM | – |
| C=CC(=O)Oc1ccc(C(C)(C)CC)cc1 [4-(2-methylbutan-2-yl)phenyl prop-2-enoate] | – | 43.5 µM | 69.6 µM |
| C=CC(=O)Oc1ccc(C(=O)OCCCCC)cc1 [pentyl 4-(prop-2-enoyloxy)benzoate] | > 100 µM | 55.8 µM | – |
| CCCCCCc1ccc(C(=O)/C=C/C(=O)O)cc1 [(2E)-4-(4-hexylphenyl)-4-oxobut-2-enoic acid] | – | 17.7 µM | 19.2 µM |
| C=CC(=O)Oc1ccc2c(c1)CCCC2 [5,6,7,8-tetrahydronaphthalen-2-yl prop-2-enoate] | 85.3 µM | 69.8 µM | – |
| C=CC(=O)Oc1ccccc1C(=O)OCCCCCC [hexyl 2-(prop-2-enoyloxy)benzoate] | 39.1 µM | 8.2 µM | – |
| C=CC(=O)Oc1ccc(CCCC)cc1 [4-butylphenyl prop-2-enoate] | – | 66 µM | 71 µM |
| C=CC(=O)Oc1ccc(CCC)cc1 [4-propylphenyl prop-2-enoate] | – | 100 µM | – |

— BindingDB's records for doi:10.1021/jm070556y (St. Jude Research Hospital, 2007)
